Patent US8961930B2, “Isatin derivatives for use as in vivo imaging agents” (Imperial Innovations Limited, priority 2008, dated 2015)
Values joined by “and” are separate entries in the source; they are usually repeats but may differ in a detail not shown here. Equal values may be shown once.

Tests used:
[1] = test system: 38C13 murine lymphoma xenograft; test: Biodistribution of [^18F]11 in 38C13 xenograft-bearing mice after PET scan; format: in vivo, C3H/hej mice; set-up: Biodistribution, Lung: unit not given here
Description: The in vivo experimental model of tumour apoptosis was established by subcutaneous injection of 38C13 murine lymphoma cells (5000 cells) on the back of 6-8 weeks old male C3H/hej mice (Harlan, Bicester, Oxfordshire, UK). When xenografts reached ˜100 mm3, the mice were treated with cyclophosphamide (CPA, 100 mg/kg) or vehicle for 24 h and then scanned on a dedicated small animal PET scanner (Siemens Inveon PET module). Anesthetized animals were placed within a thermostatically controlled bed and positioned prone within the scanner. A bolus injection of [^18F]11 (˜100 μCi) was given intravenously (i.v.) via the tail vein cannula and scanning commenced.
Dynamic emission scans were acquired in list-mode format over 60 minutes. The acquired data were then sorted into 0.5-mm sinogram bins and 19 time frames for image reconstruction, which was done by filtered back projection. The image data-sets obtained were visualized using the Siemens Inveon Research Workplace software. Cumulative images of the dynamic data were used for visualization of radiotracer uptake and to define the regions of interest (ROI). The count densities were averaged for each ROI at each of the 19 time points to obtain a time versus radioactivity curve (TAC) for the ROIs (see FIG. 15).
Tumour TAC was normalized to that of whole body at each of the time points to obtain the normalized uptake value (NUV).
After the scan, the different tissues were removed, weighted and placed in tubes for immediate Fluorine-18 radioactivity counting to assess the [^18F]11 biodistribution (See Table 4, below).

[2] = In vivo metabolism studies, radio-HPLC of plasma, liver and urine; set-up: species or system C3H/hej mice; details: for Recovery (plasma): extraction efficiency; for Parent (liver) / Recovery (liver): individual results from two samples
Description: [^18F]11 was injected intravenously into tumor-bearing mice and its tissue distribution was measured in selected tissues at 2, 15 and 60 min after injection. […] Furthermore, the in vivo metabolic stability of the radiotracer was determined from plasma and liver samples and, for [^18F]11, in urine samples.
In vivo metabolism studies were also performed in C3H/hej mice. […] Plasma, liver and urine samples were snap-frozen in liquid nitrogen and kept in pre-weighed scintillation counting tubes on dry ice prior to analysis.
Immediately prior to extraction the samples were thawed and placed on ice. For extraction, ice cold acetonitrile (1.5 mL) was added to plasma (0.2 mL); S9 incubation samples (3 mL) containing acetonitrile were also analysed. Each mixture was centrifuged (15493×g, 4° C., 3 min) and the resulting supernatant was evaporated to dryness under vacuum at 40° C. using a rotary evaporator. Liver samples were homogenized with ice cold acetonitrile (1.5 mL) using an IKA Ultra-Turrax T-25 homogeniser prior to centrifugation. The residues were then re-suspended in HPLC mobile phase (1.2 mL) and filtered through a Minisart hydrophilic syringe filter (0.2 μm) (Sartorius, Goettingen, Germany). Urine samples were diluted with HPLC mobile phase, filtered as above. The samples (1 mL) were then analyzed by radio-HPLC on an Agilent 1100 series HPLC system (Agilent Technologies, Stockport, UK) equipped with a γ-RAM Model 3 gamma-detector and the Laura software (IN/US Systems inc., Florida, USA).
The stationary phase comprised of a Waters μBondapak C18 reverse-phase column (300×7.8 mm). […] Furthermore, to assess the fraction of [^18F]9-derived radioactivity associated with the plasma and liver pellets after extraction versus that remaining in the HPLC injectate, the total volume of HPLC injectate was recorded and an aliquot (0.1 mL) removed for counting. The radioactivity in the 0.1 mL aliquot and the pellet were then analyzed by gamma counting (Packard Instruments).

[3] = Log P determination, octanol-water partition coefficient; format: physicochemical; details: read-out: Measured Log P
Description: Lipophilicity was assessed by measuring the octanol-water partition coefficient using the method of Barthel et al^18. Briefly, [^18F]11 (˜180 μCi in 25 μL ethanol) was diluted to a final volume of 100 μL using water to give the stock solution. Aliquots of stock solution (10 μL) were added to water (490 μL) and octan-1-ol (Aldrich anhydrous grade) (500 μL). The solutions were then shaken vigorously for 10 min then centrifuged (13201 g, 20° C., 30 min) Following centrifugation portions (200 μL) of the water and octanol layers were carefully removed and placed analyzed on a Cobra II Auto-Gamma counter (Packard Instruments, Meriden, Conn., USA) and compared. The octanol-water partition coefficient was obtained by dividing the octanol containing radioactivity by the water containing radioactivity. Log P was determined to be 1.61, as indicated in footnote c of Table 1 above.

O=C1C(=O)N(Cc2cn(CC[18F])nn2)c2ccc(S(=O)(=O)N3CCC[C@H]3COc3ccc(F)cc3F)cc21 [[^18F]11, (S)-1-((1-(2-Fluoroethyl)-1H-[1,2,3]-triazol-4-yl)methyl)-5-(2(2,4-difluorophenoxymethyl)-pyrrolidine-1-sulfonyl)isatin]
increase in uptake in tumours of CPA-treated mice compared to the vehicle ([1]; 38C13 xenograft, CPA 100 mg/kg 24 h): 2 fold | Biodistribution, Blood ([1]; CPA): 1.00 ± 0.00 % ID Tumour/blood ratio | Biodistribution, Blood ([1]; Vehicle): 1.00 ± 0.00 % ID Tumour/blood ratio | Biodistribution, Bone ([1]; CPA): 0.93 ± 0.07 % ID Tumour/blood ratio | Biodistribution, Bone ([1]; Vehicle): 0.87 ± 0.10 % ID Tumour/blood ratio | Biodistribution, Brain ([1]; CPA): 0.23 ± 0.03 % ID Tumour/blood ratio | Biodistribution, Brain ([1]; Vehicle): 0.24 ± 0.02 % ID Tumour/blood ratio | Biodistribution, Feces ([1]; CPA): 8.46 ± 0.91 % ID Tumour/blood ratio | Biodistribution, Feces ([1]; Vehicle): 13.28 ± 2.37 % ID Tumour/blood ratio | Biodistribution, Heart ([1]; CPA): 1.43 ± 0.16 % ID Tumour/blood ratio | Biodistribution, Heart ([1]; Vehicle): 1.31 ± 0.10 % ID Tumour/blood ratio | Biodistribution, Kidney ([1]; CPA): 7.23 ± 0.47 % ID Tumour/blood ratio | Biodistribution, Kidney ([1]; Vehicle): 7.21 ± 0.33 % ID Tumour/blood ratio | Biodistribution, L. Intestine ([1]; CPA): 2.78 ± 0.64 % ID Tumour/blood ratio | Biodistribution, L. Intestine ([1]; Vehicle): 6.07 ± 0.62 % ID Tumour/blood ratio | Biodistribution, Liver ([1]; CPA): 14.17 ± 1.55 % ID Tumour/blood ratio | Biodistribution, Liver ([1]; Vehicle): 10.60 ± 0.75 % ID Tumour/blood ratio | Biodistribution, Lung ([1]; CPA): 5.49 ± 0.66 | Biodistribution, Lung ([1]; Vehicle): 4.27 ± 0.13 | Biodistribution, Muscle ([1]; CPA): 1.20 ± 0.07 % ID Tumour/blood ratio | Biodistribution, Muscle ([1]; Vehicle): 1.22 ± 0.07 % ID Tumour/blood ratio | Biodistribution, Plasma ([1]; CPA 100 mg/kg 24 h, 38C13 xenograft): 1.90 ± 0.09 % ID Tumour/blood ratio | Biodistribution, Plasma ([1]; Vehicle, 38C13 xenograft): 1.98 ± 0.23 % ID Tumour/blood ratio | Biodistribution, S. Intestine ([1]; CPA): 83.12 ± 70.19 % ID Tumour/blood ratio | Biodistribution, S. Intestine ([1]; Vehicle): 291.61 ± 28.68 % ID Tumour/blood ratio | Biodistribution, Spleen ([1]; CPA): 1.81 ± 0.37 % ID Tumour/blood ratio | Biodistribution, Spleen ([1]; Vehicle): 2.30 ± 0.38 % ID Tumour/blood ratio | Biodistribution, Stomach ([1]; CPA): 1.62 ± 0.19 % ID Tumour/blood ratio | Biodistribution, Stomach ([1]; Vehicle): 1.95 ± 0.00 % ID Tumour/blood ratio | Biodistribution, Tumour ([1]; CPA): 1.24 ± 0.11 % ID Tumour/blood ratio | Biodistribution, Tumour ([1]; Vehicle): 0.83 ± 0.10 % ID Tumour/blood ratio | Biodistribution, Urine ([1]; CPA): 43.64 ± 12.24 % ID Tumour/blood ratio | Biodistribution, Urine ([1]; Vehicle): 116.71 ± 19.47 % ID Tumour/blood ratio | Recovery (plasma) ([2]; 2 min): 92.1 ± 3.4% | Parent (liver) ([2]; 2 min): 35.7% and 43.4% | Recovery (liver) ([2]; 2 min): 79.7% and 86.9% | Parent (plasma) ([2]; 2 min after i.v. injection, mice, radio-HPLC): 86.1 ± 3.7% | Recovery (plasma) ([2]; 15 min): 76.8 ± 5.2% | Parent (liver) ([2]; 15 min): 9.7% and 10.2% | Recovery (liver) ([2]; 15 min): 67.1% and 68.9% | Parent (plasma) ([2]; 15 min after i.v. injection, mice, radio-HPLC): 61.3 ± 5.9% | Recovery (plasma) ([2]; 60 min): 50.9 ± 3.7% | Parent (liver) ([2]; 60 min): 27.0% and 29.7% | Recovery (liver) ([2]; 60 min): 46.4% and 65.2% | Parent (plasma) ([2]; 60 min after i.v. injection, mice, radio-HPLC): 64.8 ± 7.0% | stability to metabolic degradation in vivo ([2]; radio-HPLC, plasma and liver, mice): relatively more stable to metabolic degradation than [^125I]14 | logP at 10 min [3]: 1.61
